Data: patent US20230174571A1, “METHOD OF TREATING SHIP1-MEDIATED DISEASES USING PELOROL DERIVATIVES” (Zebrapeutics Inc., priority 2020, published 2023)

Experiments:
[1] = molecular target: T1, SHIP1 and STAT3 (Mus musculus, UniProt Q9ES52); test: Immunofluorescence of SHIP1 and STAT3 subcellular localization in peritoneal macrophages; type: cell-based; details: for membrane association of SHIP1 and STAT3 / nuclear localization of SHIP1 and STAT3: wild-type perimacs, 100 ng/ml IL10 or 20 μM I-2; for membrane association of SHIP1 and STAT3: 2 min; for nuclear localization of SHIP1 and STAT3: 20 min
T1 construct: expressed in transfected cells; host or cells: J17 (SHIP1-/- mouse BMDM-derived line), lentiviral transduction
T1 sequence (Q9ES52 1-1191): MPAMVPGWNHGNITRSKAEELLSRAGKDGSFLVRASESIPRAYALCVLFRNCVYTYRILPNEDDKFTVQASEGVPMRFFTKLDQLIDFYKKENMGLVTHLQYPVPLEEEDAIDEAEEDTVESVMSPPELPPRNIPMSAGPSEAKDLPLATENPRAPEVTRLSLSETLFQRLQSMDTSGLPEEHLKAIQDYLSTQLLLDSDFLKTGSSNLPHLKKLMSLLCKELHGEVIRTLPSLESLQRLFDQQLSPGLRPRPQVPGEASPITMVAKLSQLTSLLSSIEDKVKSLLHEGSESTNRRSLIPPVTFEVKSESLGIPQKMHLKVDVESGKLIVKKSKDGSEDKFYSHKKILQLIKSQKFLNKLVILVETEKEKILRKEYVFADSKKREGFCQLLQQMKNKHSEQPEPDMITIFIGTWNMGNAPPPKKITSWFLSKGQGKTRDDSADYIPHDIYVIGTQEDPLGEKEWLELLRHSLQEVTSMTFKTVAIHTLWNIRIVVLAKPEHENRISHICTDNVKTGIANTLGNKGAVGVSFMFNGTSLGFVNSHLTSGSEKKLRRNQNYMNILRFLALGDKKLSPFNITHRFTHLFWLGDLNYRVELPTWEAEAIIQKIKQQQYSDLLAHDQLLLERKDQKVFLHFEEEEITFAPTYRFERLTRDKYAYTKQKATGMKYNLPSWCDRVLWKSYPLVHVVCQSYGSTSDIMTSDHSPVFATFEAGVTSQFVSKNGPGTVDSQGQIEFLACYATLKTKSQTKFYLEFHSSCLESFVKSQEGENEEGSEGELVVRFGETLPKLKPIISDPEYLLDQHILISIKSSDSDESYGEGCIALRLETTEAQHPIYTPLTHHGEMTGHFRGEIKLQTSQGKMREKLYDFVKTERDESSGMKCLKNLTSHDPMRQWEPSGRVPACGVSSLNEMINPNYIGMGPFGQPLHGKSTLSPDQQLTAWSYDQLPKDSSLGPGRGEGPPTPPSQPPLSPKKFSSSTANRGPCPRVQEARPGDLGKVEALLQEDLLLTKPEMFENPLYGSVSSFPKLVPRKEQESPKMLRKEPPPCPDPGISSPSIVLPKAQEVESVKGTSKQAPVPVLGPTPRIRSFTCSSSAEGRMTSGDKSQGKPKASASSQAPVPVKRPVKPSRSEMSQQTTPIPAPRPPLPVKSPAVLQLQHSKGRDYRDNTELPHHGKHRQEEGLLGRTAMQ
Description: Isolation of mouse peritoneal macrophages. Primary peritoneal macrophages (perimacs) were isolated from mice by peritoneal lavage with 3 ml of sterile Phosphate Buffered Saline (PBS) (Thermo Fisher Scientific, Nepean, ON). Perimacs were collected and transferred to Mac media.
Immunofluorescence. Perimacs were seeded at 3×10^5 cells per well in 18-well Ibidi p-Slides (Ibidi GmbH, Martinsried, Germany) and allowed to adhere for 3 hours before washing with PBS to remove non-adherent cells. CD8+ T cells were seeded at 2×10^6 cells in 12-well tissue culture plates. Cells were stimulated with either 100 ng/ml IL10 or 20 μM compound I-2 for 2 or 20 minutes followed by 3×PBS washes and fixing of cells in 4% paraformaldehyde for 15 minutes at room temperature. Cells were incubated with anti-mouse CD16/CD32 Fc Block (BD Pharmingen) for 1 hour followed by an overnight incubation at 4° C. with either anti-SHIP1 antibody (P1C1) (Santa Cruz Biotechnology) or anti-STAT3 antibody (9D8) (ThermoFisher Scientific). Cells were then incubated with anti-mouse IgG (H+L)-Alexa Fluor 660 secondary antibody (ThermoFisher Scientific) for 1 hour, followed by, for perimacs, anti-CD11b-FITC antibody (BD Pharmingen) for 30 minutes. CD8+ T cells were mounted onto 18-well Ibidi p-Slides prior to confocal microscopy and cells were stored in Ibidi Mounting Media supplemented with ProLong Gold antifade reagent with DAPI (Molecular Probes, Life Technologies). Cells were imaged on a Leica SP5II on DM6000 confocal microscope with a 63×/1.4-0.6 Oil PL APO objective using 405, 488 and 633 nm laser lines for excitation. Final images were scanned sequentially acquiring eight Z-stacks with a frame-average of four. Co-localization analysis was performed using ImageJ software by first combining individual z-stack confocal images then performing deconvolution and co-localization using CUDA deconvolution and JACoP plugins respectively. Pearson's coefficient values were produced as a measurement of the degree of overlap between SHIP1 or STAT3 with CD11b (for Perimacs) or DAPI.

[2] = molecular target: T1, SHIP1 and STAT3; test: In vitro pull down assay of His6-SHIP1 with STAT3; type: cell-based; details: J17 His6-SHIP1 cells; 100 ng/ml IL10 or IL6, 20 μM compound I-2; 5 minutes
Description: In vitro pull down assay. J17 His6-SHIP1 and Y190F cells were seeded at 2×10^6 cells per well in a 6-well plate. After overnight incubation, fresh cell media was added for 30 minutes before stimulation with 100 ng/ml IL10, […] or 20 μM compound I-2 for 5 minutes. Cells were lysed with Protein Solubilization Buffer (PSB, 50 mM Hepes, pH 7.5, […], 10 mM Na Pyrophosphate, 2 mM NaVO4, 2 mM Na Molybdate, 2 mM EDTA) containing 1% octylglucoside, 0.01 M imidazole, and protease inhibitor cocktail (Roche Diagnostics, Laval, QC) for 30 minutes at 4° C. and centrifuged at 10000 rpm for 15 minutes. EDTA resistant Ni beads (Roche Diagnostics, Laval, QC) were added to supernatants and the mixture incubated at 4° C. for 1 hour before spinning down and washing of beads three times with 0.1% octylglucoside wash buffer in PSB. Bead samples and starting material cell lysates were separated on a 7.5% SDS-PAGE gel.
Immunoblotting. Protein lysates were separated on SDS-PAGE gels and transferred onto polyvinylidene fluoride (PVDF) membrane (Millipore, Etobicoke, ON). Membranes were blocked and probed, where appropriate, with the following primary antibodies overnight: SHIP1 (P1C1) (Santa Cruz Biotechnology), pSHIP1 (Y190) (Kinexus), STAT3 (9D8) (ThermoFisher Scientific), pSTAT3 (Y705) (Thermo Fisher Scientific), STAT1 (BD Transduction Laboratories), pSTAT1 (Y701) (Upstate Biotechnology), GAPDH and actin (Sigma-Aldrich). Membranes were developed with either Alexa Fluor® 660 anti-mouse IgG or Alexa Fluor® 680 anti-rabbit IgG antibodies (Thermo Fisher Scientific) and imaged using a LI-COR Odyssey Imager.

Row | Molecule | mimicry of IL10 with respect to SHIP1 and STAT3 translocations ([1]; peritoneal macrophages) | association (co-precipitation) of SHIP1 and STAT3 [2] | membrane association of SHIP1 and STAT3 [1] | nuclear localization of SHIP1 and STAT3 [1]
1 | Cc1cc(O)cc2c1C1(C)CCC3C(C)(C)CCCC3(C)C1C2 (centres unmarked) [Compound I-1] | can mimic IL10 | could by itself induce formation of a SHIP1/STAT3 complex |  | 
2 | CC12CCC3C(C)(C)C(N)CCC3(C)C1Cc1cc(O)cc(O)c12 (centres unmarked) [Compound I-2] |  | sufficient to induce association of SHIP1 and STAT3 | induced membrane association of both SHIP1 and STAT3 | both SHIP1 and STAT3 are found in the nucleus
3 | IL10: anti-inflammatory cytokine interleukin-10 |  | resulted in co-precipitation of SHIP1 with STAT3 | induced membrane association of both SHIP1 and STAT3 | both SHIP1 and STAT3 are found in the nucleus
